# How the values were obtained:
# Test in all cases: agar well diffusion assay
# Type in all cases: cell-based
# Settings in all cases: 24 h, PC positive control fluconazole 25 µg/mL
# [1] = test system: Aspergillus niger (A. niger)
# Method in brief: (§1)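 Multidrug-resistant clinical isolates swabbed on Mueller–Hinton agar at about 1–5 × 10^5 CFU/mL; 0.5 cm wells received 50 μL compound at 500 μg/mL in 1% DMSO. Incubation 24 h, 37 °C for bacteria and C. albicans, 25 °C for Aspergillus; inhibition zone diameter measured in mm.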
# [2] = test system: Aspergillus flavus (A. flavus)
# Method in brief: as §1
# [3] = test system: Candida albicans (C. albicans)
# Method in brief: as §1
compound,measurement,setting,value
OC(Cn1cncn1)(Cn1cncn1)c1ccc(F)cc1F [fluconazole],zone of inhibition at 25 µg/mL,[1],18 mm
same,zone of inhibition at 25 µg/mL,[2],18 mm
same,zone of inhibition at 25 µg/mL,[3],20 mm
